Laboratory results from patent publication US4119722A, “Method for control of fungi using 4-halo-5-aryl-1,2,3,-dithiazoles” (Chevron Research Company, priority 1977, dated 1978).

Columns and labels:
Fusarium moniloforma = assay: Mycelia Inhibition; assay type: cell-based; conditions: 25° C., 24 hours
Method: (§1) The compounds of the present invention were evaluated for fungicidal effectiveness by means of a mycelial inhibition test. This test is designed to measure the fungitoxic acitvity of fungicidal chemicals in terms of their degree of inhibition of mycelium growth. Each compound to be tested was dissolved in acetone to 500 ppm concentration. Paper strips were innoculated with the particular mycelium growth by covering the paper with a potato dextrose broth culture of mycelial suspension. The innoculated papers were then placed on potato dextrose agar plates and sprayed by means of a micro sprayer with the fungicidal solution. The treated paper strips were incubated at 25° C. and data is taken after 24 hours. Fungicidal activities are measured by a zone of inhibited mycelial growth from the center of the paper strip. The effectiveness of the compounds tested for fungicidal activity is reported in Table VI in terms of the microgram/cm^2 for 99% control of the fungus.

Aspergillus niger = assay: Mycelia Inhibition; assay type: cell-based; conditions: 25° C., 24 hours
Method: as §1

Botrytis cinerea = assay: Mycelia Inhibition; assay type: cell-based; conditions: 25° C., 24 hours
Method: as §1

Rhizoctonia solani = assay: Mycelia Inhibition; assay type: cell-based; conditions: 25° C., 24 hours
Method: as §1

Septoria apii = assay type: in vivo; conditions: sprayed celery plants; concentration not given
Phytophthora infestans = assay: whole plant or invertebrate; assay type: in vivo; conditions: in Solanum lycopersicum, 168 h, read-out: Tomato Late Blight, % Control
[1] = test system: Watergrass (Echinochloa Crusgalli); assay: Post-emergent herbicidal test; assay type: in vivo; conditions: Echinochloa crus-galli, post-emergence, 504 h, 33 mcg/cm^2, 3 weeks, scale 0 (no phytotoxicity) to 100 (complete kill), read-out: Herbicidal Effectiveness (W)
Method: (§2) Post-emergent herbicidal tests with representative compounds of this invention were made using the following method.
(§3) An acetone solution of the test compound was prepared by mixing 750 mg of the compound, 220 mg of a nonionic surfactant and 25 ml of acetone. This solution was added to approximately 125 ml of water containing 156 mg of surfactant.
(§4) This test solution was uniformly sprayed on 2 similar pots of 24-day-old plants (approximately 15 to 25 plants per pot) at a dose of 33 mcg/cm^2. After the plants had dried, they were placed in a greenhouse and then watered intermittently at their bases, as needed. The plants were observed periodically for phytotoxic effects and physiological and morphological responses to the treatment. After 3 weeks, the herbicidal effectiveness of the compound was rated based on these observations. A 0-to-100 scale was used, 0 representing no phytotoxicity and 100 representing complete kill.

[2] = test system: Crabgrass (Digitaria sanguinalis); assay: Post-emergent herbicidal test; assay type: in vivo; conditions: post-emergence, 504 h, 33 mcg/cm^2, 3 weeks, scale 0 (no phytotoxicity) to 100 (complete kill), read-out: Herbicidal Effectiveness (C)
Method: as §2, §3, §4

[3] = test system: Pigweed (Amaranthus retroflexus); assay: Post-emergent herbicidal test; assay type: in vivo; conditions: post-emergence, 504 h, 33 mcg/cm^2, 3 weeks, scale 0 (no phytotoxicity) to 100 (complete kill), read-out: Herbicidal Effectiveness
Method: as §2, §3, §4

Wild Oats (Avena fatua) = assay: Post-emergent herbicidal test; assay type: in vivo; conditions: post-emergence, 504 h, 33 mcg/cm^2, 3 weeks, scale 0 (no phytotoxicity) to 100 (complete kill), read-out: Herbicidal Effectiveness (O)
Method: as §2, §3, §4

[4] = test system: Lambsquarter (Chenopodium album); assay: Post-emergent herbicidal test; assay type: in vivo; conditions: post-emergence, 504 h, 33 mcg/cm^2, 3 weeks, scale 0 (no phytotoxicity) to 100 (complete kill), read-out: Herbicidal Effectiveness (P)
Method: as §2, §3, §4

[5] = test system: Mustard (Brassica arvensis); assay: Post-emergent herbicidal test; assay type: in vivo; conditions: post-emergence, 504 h, 33 mcg/cm^2, 3 weeks, scale 0 (no phytotoxicity) to 100 (complete kill), read-out: Herbicidal Effectiveness (L)
Method: as §2, §3, §4

[6] = test system: two spotted-mites (Tetramuchus urticae); assay: Mite control test, adult mites; assay type: in vivo; conditions: 40-ppm leaf dip, adult mortality one day after treatment; 1440 min
Method: (§5) Compounds of the invention were tested for the control mites and mite eggs by the following procedure. Pinto bean leaves were invested with two spotted-mites (Tetramuchus urticae). The mites were then allowed to lay eggs on the leaves. After 48 hours, the leaves were dipped into a water/acetone solution containing a small amount of a non-ionic surfactant and 40-ppm of the test compound. The treated leaves were then maintained at 85° F. One day after treatment, the mortality of adult mites was determined, and 7 days after treatment, the egg mortality (non-hatching eggs) was determined.

[7] = test system: mite eggs (Tetramuchus urticae); assay: Mite control test, mite eggs; assay type: in vivo; conditions: 40-ppm leaf dip, egg mortality (non-hatching eggs) 7 days after treatment
Method: as §5

| Structure (SMILES) | Mycelia Inhibition, for 99% control (F) (Fusarium moniloforma) [micrograms/cm^2] | Mycelia Inhibition, for 99% control (A) (Aspergillus niger) [micrograms/cm^2] | Mycelia Inhibition, for 99% control (B) (Botrytis cinerea) [micrograms/cm^2] | Mycelia Inhibition, for 99% control (R) (Rhizoctonia solani) [micrograms/cm^2] | Celery Late Blight, % Control (Septoria apii) [%] | pest or weed control at 250 µg/mL (Phytophthora infestans) [%] | pest or weed control at 33 µg/cm2 [1] [%] | pest or weed control at 33 µg/cm2 [2] [%] | pest or weed control at 33 µg/cm2 [3] [%] | pest or weed control at 33 µg/cm2 (Wild Oats (Avena fatua)) [%] | pest or weed control at 33 µg/cm2 [4] [%] | pest or weed control at 33 µg/cm2 [5] [%] | Mite Control, % [6] [%] | Mite Eggs Control, % [7] [%] |
| --- | --- | --- | --- | --- | --- | --- | --- | --- | --- | --- | --- | --- | --- | --- |
| Cc1cc(C)c(N=c2ssnc2Cl)c(C)c1 [Compound 11] | > 1.7 | > 1.7 | > 1.7 | 0.98 |  |  |  |  |  |  |  |  |  |  |
| O=[N+]([O-])c1ccc(Oc2cccc(N=c3ssnc3Cl)c2)c(C(F)(F)F)c1 [Compound 17] |  |  |  |  | 56 | 62 |  |  |  |  |  |  |  |  |
| Clc1cccc(N=c2ssnc2Cl)c1 [Compound 15] | > 1.7 | > 1.7 | > 1.7 | 0.98 |  | 68 | 45 | 10 | 85 | 30 | 80 | 98 |  |  |
| O=[N+]([O-])c1cccc(N=c2ssnc2Cl)c1 [Compound 8] | > 1.7 | > 1.7 | 1.3 | > 1.7 |  | 44 | 0 | 0 | 30 | 0 | 40 | 35 |  |  |
| N#Cc1cc(C(F)(F)F)ccc1Oc1cccc(N=c2ssnc2Cl)c1 [Compound 30] |  |  |  |  | 80 |  |  |  |  |  |  |  |  |  |
| Cc1ccccc1N=c1ssnc1Cl [Compound 7] | > 1.7 | 0.98 | > 1.7 | > 1.7 |  |  | 0 | 0 | 70 | 0 | 70 | 60 |  |  |
| Oc1c(Cl)cc(N=c2ssnc2Cl)cc1Cl [Compound 26] | > 1.7 | > 1.7 | > 1.7 | 1.3 |  |  |  |  |  |  |  |  |  |  |
| Clc1ccccc1N=c1ssnc1Cl [Compound 14] |  |  |  |  |  |  | 40 | 30 | 93 | 0 | 100 | 100 | 70 | 0 |
| N#Cc1ccccc1N=c1ssnc1Cl [Compound 29] |  |  |  |  | 44 |  |  |  |  |  |  |  |  |  |
| Clc1nssc1=Nc1ccc2ccccc2c1 [Compound 16] |  |  |  |  |  | 73 | 90 | 20 | 85 | 0 | 70 | 100 |  |  |
| Clc1nssc1=Nc1cccc(Br)c1 [Compound 12] | > 1.7 | > 1.7 | > 1.7 | 1.4 |  |  | 30 | 30 | 85 | 30 | 55 | 100 |  | 78 |
| Cc1cccc(C)c1N=c1ssnc1Cl [Compound 10] |  |  |  |  |  |  | 0 | 0 | 60 | 0 | 30 | 75 |  |  |
| Fc1ccc(N=c2ssnc2Cl)cc1 [Compound 24] |  |  |  |  |  |  | 60 | 60 | 70 | 40 | 70 | 100 |  |  |
| O=[N+]([O-])c1ccc(Oc2ccccc2N=c2ssnc2Cl)cc1 [Compound 20] | > 1.7 | > 1.7 |  | 1.3 | 62 | 80 |  |  |  |  |  |  |  |  |
| Clc1ccc(N=c2ssnc2Cl)cc1Cl [Compound 5, 4-chloro-5-(3,4-dichlorophenylimino)-1,2,3-dithiazole] | > 1.7 | 1.1 |  | > 1.7 |  |  | 55 | 30 | 100 | 35 | 100 | 100 | 99 | 100 |
| Clc1nssc1=Nc1ccccc1 [Compound 1, 4-chloro-5-phenylimino-1,2,3-dithiazole] | > 1.7 | > 1.7 | 0.33 | > 1.7 |  |  | 10 | 20 | 85 | 0 | 70 | 80 |  |  |
| Clc1ccc(N=c2ssnc2Cl)cc1 [Compound 2] | 1.5 | 0.85 |  | 0.33 |  |  | 85 | 20 | 100 | 15 | 95 | 95 |  |  |
| Cc1ccc(N=c2ssnc2Cl)cc1 [Compound 25] | > 1.7 | 1.5 | 0.76 | 0.92 |  |  | 55 | 35 | 90 | 30 | 45 | 100 |  |  |
| O=[N+]([O-])c1ccc(Oc2ccc(N=c3ssnc3Cl)cc2)cc1 [Compound 19] | > 1.7 | > 1.7 |  | 0.88 | 62 | 51 |  |  |  |  |  |  | 0 | 78 |
